Results taken from patent US8614220B2, “Substituted pyrazolo-quinazoline derivatives, process for their preparation and their use as kinase inhibitors” (priority 2006, dated 2013).

What follows are molecules tested on A2780 human ovarian cancer cells (assay: In vitro cell proliferation assay (CellTiter-Glo, 72 hours)).
Assay type: cell-based
Protocol: In Vitro Cell Proliferation Assay
A2780 human ovarian and MCF7 human breast cancer cells (1250 cells/well) were seeded in white 384 well-plates in complete medium (RPMI1640 or EMEM plus 10% Fetal bovine serum) and treated with compounds dissolved in 0.1% DMSO, 24 h after seeding. The cells were incubated at 37° C. and 5% CO2 and after 72 hours the plates were processed using CellTiter-Glo assay (Promega) following the manufacturer's instruction.
CellTiter-Glo is a homogenous method based on the quantification of the ATP present, an indicator of metabolitically active cells. ATP is quantified using a system based on luciferase and D-luciferin resulting into light generation. The luminescent signal is proportional to the number of cells present in culture.
Briefly 25 microL/well reagent solution are added to each wells and after 5 minutes shacking microplates are red by a luminometer. The luminescent signal is proportional to the number of cells present in culture.

Structure (SMILES) | IC50
CN(C)CCCN1CCN(c2ccc(OC(F)(F)F)c(Nc3ncc4c(n3)-c3c(c(C(N)=O)nn3C)CC4)c2)CC1 [Code A101B1C1Z] | 520 nM
NC(=O)c1nn(CCF)c2c1CCc1cnc(Nc3ccccc3OC(F)(F)F)nc1-2 [Code A45B2C1Z] | 500 nM
Cc1ccc(N2CCN(C)CC2)cc1Nc1ncc2c(n1)-c1c(c(C(=O)O)nn1C)CC2 [Code A98B1C3Z] | 1300 nM
COc1ccc(CO)cc1Nc1ncc2c(n1)-c1c(c(C(N)=O)nn1C)CC2 [Code A47B1C1Z] | 147 nM
